# According to PubChem BioAssay (NCI):
#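 The concentration for 50% growth inhibition is given as GI50. The concentration for full growth arrest is given as TGI.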
# What was measured:
# Assay in all cases: growth of human tumour cells (NCI), 384-well format
# MDA-MB-231 breast = test system: MDA-MB-231 breast
# OVCAR-4 ovarian = test system: OVCAR-4 ovarian
# MOLT-4 leukemia = test system: MOLT-4 leukemia
# NCI-H226 lung = test system: NCI-H226 lung
# NCI/ADR-RES ovarian = test system: NCI/ADR-RES ovarian
# UACC-62 melanoma = test system: UACC-62 melanoma
# UO-31 renal = test system: UO-31 renal
# SK-OV-3 ovarian = test system: SK-OV-3 ovarian
# M14 melanoma = test system: M14 melanoma
# DU-145 prostate = test system: DU-145 prostate
# SN12C renal = test system: SN12C renal
# PC-3 prostate = test system: PC-3 prostate
# CAKI-1 renal = test system: CAKI-1 renal
# RPMI-8226 leukemia = test system: RPMI-8226 leukemia
# TK-10 renal = test system: TK-10 renal
# COLO 205 colon = test system: COLO 205 colon
# SK-MEL-28 melanoma = test system: SK-MEL-28 melanoma
# IGROV1 ovarian = test system: IGROV1 ovarian
# LOX IMVI melanoma = test system: LOX IMVI melanoma
# HT29 colon = test system: HT29 colon
# T-47D breast = test system: T-47D breast
# KM12 colon = test system: KM12 colon
# SF-539 CNS = test system: SF-539 CNS
# OVCAR-5 ovarian = test system: OVCAR-5 ovarian
# MDA-MB-435 melanoma = test system: MDA-MB-435 melanoma
# ACHN renal = test system: ACHN renal
# NCI-H522 lung = test system: NCI-H522 lung
# A498 renal = test system: A498 renal
# HOP-92 NSCLC = test system: HOP-92 NSCLC
# NCI-H460 NSCLC = test system: NCI-H460 NSCLC
# SK-MEL-5 melanoma = test system: SK-MEL-5 melanoma
# OVCAR-3 ovarian = test system: OVCAR-3 ovarian
# BT-549 breast = test system: BT-549 breast
# SNB-19 CNS = test system: SNB-19 CNS
# MDA-MB-468 breast = test system: MDA-MB-468 breast
# NCI-H322M lung = test system: NCI-H322M lung
# MCF7 breast = test system: MCF7 breast
# CCRF-CEM leukemia = test system: CCRF-CEM leukemia
# NCI-H23 lung = test system: NCI-H23 lung
# A549 NSCLC = test system: A549 NSCLC
# OVCAR-8 ovarian = test system: OVCAR-8 ovarian
# HCT-15 colon = test system: HCT-15 colon
# HOP-62 NSCLC = test system: HOP-62 NSCLC
# SF-295 CNS = test system: SF-295 CNS
# SW-620 colon = test system: SW-620 colon
# SNB-75 CNS = test system: SNB-75 CNS
# HS 578T breast = test system: HS 578T breast
# HCC-2998 colon = test system: HCC-2998 colon
# SF-268 CNS = test system: SF-268 CNS
# 786-0 renal = test system: 786-0 renal
# MALME-3M melanoma = test system: MALME-3M melanoma
# EKVX NSCLC = test system: EKVX NSCLC
# HCT-116 colon = test system: HCT-116 colon
# U251 glioblastoma = test system: U251 glioblastoma
# UACC-257 melanoma = test system: UACC-257 melanoma
# SR leukemia = test system: SR leukemia
# HL-60(TB) leukemia = test system: HL-60(TB) leukemia
# RXF 393 renal = test system: RXF 393 renal
compound,measurement,setting,value
Cc1cc(Nc2ncnc3ccc(NC4=NC(C)(C)CO4)cc23)ccc1Oc1ccn2ncnc2c1,GI50,MDA-MB-231 breast,13.6 µM
same,TGI,MDA-MB-231 breast,27.7 µM
same,GI50,OVCAR-4 ovarian,10.3 µM
same,TGI,OVCAR-4 ovarian,22.6 µM
same,GI50,MOLT-4 leukemia,1.93 µM
same,TGI,MOLT-4 leukemia,7.7 µM
same,GI50,NCI-H226 lung,12.5 µM
same,TGI,NCI-H226 lung,> 43 µM
same,GI50,NCI/ADR-RES ovarian,14.3 µM
same,TGI,NCI/ADR-RES ovarian,27.5 µM
same,GI50,UACC-62 melanoma,5.05 µM
same,TGI,UACC-62 melanoma,10.3 µM
same,GI50,UO-31 renal,3.27 µM
same,TGI,UO-31 renal,8.28 µM
same,GI50,SK-OV-3 ovarian,13 µM
same,TGI,SK-OV-3 ovarian,> 46 µM
same,GI50,M14 melanoma,11.4 µM
same,TGI,M14 melanoma,> 57.2 µM
same,GI50,DU-145 prostate,13.6 µM
same,TGI,DU-145 prostate,27.8 µM
same,GI50,SN12C renal,5.84 µM
same,TGI,SN12C renal,20 µM
same,GI50,PC-3 prostate,8.56 µM
same,TGI,PC-3 prostate,> 53.8 µM
same,GI50,CAKI-1 renal,4.23 µM
same,TGI,CAKI-1 renal,12.6 µM
same,GI50,RPMI-8226 leukemia,2.54 µM
same,TGI,RPMI-8226 leukemia,14.9 µM
same,GI50,TK-10 renal,15.2 µM
same,TGI,TK-10 renal,36 µM
same,GI50,COLO 205 colon,> 40.9 µM
same,TGI,COLO 205 colon,> 55.1 µM
same,GI50,SK-MEL-28 melanoma,8.21 µM
same,TGI,SK-MEL-28 melanoma,49.7 µM
same,GI50,IGROV1 ovarian,5 µM
same,TGI,IGROV1 ovarian,> 40.4 µM
same,GI50,LOX IMVI melanoma,14.6 µM
same,TGI,LOX IMVI melanoma,28.7 µM
same,GI50,HT29 colon,29.9 µM
same,TGI,HT29 colon,> 100 µM
same,GI50,T-47D breast,2.9 µM
same,TGI,T-47D breast,21.3 µM
same,GI50,KM12 colon,2.64 µM
same,TGI,KM12 colon,> 55 µM
same,GI50,SF-539 CNS,5.18 µM
same,TGI,SF-539 CNS,9.56 µM
same,GI50,OVCAR-5 ovarian,> 38.8 µM
same,TGI,OVCAR-5 ovarian,> 58.1 µM
same,GI50,MDA-MB-435 melanoma,18.6 µM
same,TGI,MDA-MB-435 melanoma,> 59.6 µM
same,GI50,ACHN renal,12.6 µM
same,TGI,ACHN renal,> 46.9 µM
same,GI50,NCI-H522 lung,1.29 µM
same,TGI,NCI-H522 lung,23.7 µM
same,GI50,A498 renal,4.69 µM
same,TGI,A498 renal,9.11 µM
same,GI50,HOP-92 NSCLC,4.48 µM
same,TGI,HOP-92 NSCLC,10.3 µM
same,GI50,NCI-H460 NSCLC,4.32 µM
same,TGI,NCI-H460 NSCLC,9.09 µM
same,GI50,SK-MEL-5 melanoma,12.3 µM
same,TGI,SK-MEL-5 melanoma,26.6 µM
same,GI50,OVCAR-3 ovarian,4.71 µM
same,TGI,OVCAR-3 ovarian,10 µM
same,GI50,BT-549 breast,5.36 µM
same,TGI,BT-549 breast,10.7 µM
same,GI50,SNB-19 CNS,9.26 µM
same,TGI,SNB-19 CNS,> 61.7 µM
same,GI50,MDA-MB-468 breast,6.86 µM
same,TGI,MDA-MB-468 breast,19.1 µM
same,GI50,NCI-H322M lung,5.09 µM
same,TGI,NCI-H322M lung,> 43.6 µM
same,GI50,MCF7 breast,18.3 µM
same,TGI,MCF7 breast,> 48.2 µM
same,GI50,CCRF-CEM leukemia,22.9 µM
same,TGI,CCRF-CEM leukemia,> 100 µM
same,GI50,NCI-H23 lung,25.1 µM
same,TGI,NCI-H23 lung,> 53.1 µM
same,GI50,A549 NSCLC,14.6 µM
same,TGI,A549 NSCLC,> 47.3 µM
same,GI50,OVCAR-8 ovarian,14.3 µM
same,TGI,OVCAR-8 ovarian,> 44.3 µM
same,GI50,HCT-15 colon,9.08 µM
same,TGI,HCT-15 colon,25.4 µM
same,GI50,HOP-62 NSCLC,13.5 µM
same,TGI,HOP-62 NSCLC,28.7 µM
same,GI50,SF-295 CNS,16.3 µM
same,TGI,SF-295 CNS,32.9 µM
same,GI50,SW-620 colon,6.12 µM
same,TGI,SW-620 colon,> 57.8 µM
same,GI50,SNB-75 CNS,6.7 µM
same,TGI,SNB-75 CNS,13.8 µM
same,GI50,HS 578T breast,3.74 µM
same,TGI,HS 578T breast,8.79 µM
same,GI50,HCC-2998 colon,24.3 µM
same,TGI,HCC-2998 colon,98.8 µM
same,GI50,SF-268 CNS,6.32 µM
same,TGI,SF-268 CNS,> 50.2 µM
same,GI50,786-0 renal,4.25 µM
same,TGI,786-0 renal,8.71 µM
same,GI50,MALME-3M melanoma,2.29 µM
same,TGI,MALME-3M melanoma,7.05 µM
same,GI50,EKVX NSCLC,23 µM
same,TGI,EKVX NSCLC,> 46 µM
same,GI50,HCT-116 colon,6.82 µM
same,TGI,HCT-116 colon,20.3 µM
same,GI50,U251 glioblastoma,15.9 µM
same,TGI,U251 glioblastoma,36.1 µM
same,GI50,UACC-257 melanoma,20.2 µM
same,TGI,UACC-257 melanoma,44.6 µM
same,GI50,SR leukemia,0.407 µM
same,TGI,SR leukemia,0.814 µM
same,GI50,HL-60(TB) leukemia,5.59 µM
same,TGI,HL-60(TB) leukemia,10.3 µM
same,GI50,RXF 393 renal,7.33 µM
same,TGI,RXF 393 renal,> 27.7 µM
